In US20260248787A9, “MEDICAMENT FOR TREATING CANCER COMPRISING OPTICALLY ACTIVE AZABICYCLO RING DERIVATIVE” (Sumitomo Pharma Co., Ltd., priority 2023, published 2026):

Assay: Phase 1/2 first-in-human clinical study, safety evaluation (DLT, TEAE, SAE)
Conditions: for SAE Differentiation syndrome, CTCAE Grade: Related
[1] = cut-off, 40-300 mg BID, unrelated to study drug
[2] = patient US053A-0001, 80 mg BID Arm A, Not related, Recovered/Resolved
[3] = patient US154A-0002, 40 mg BID Arm B, Not related, Not recovered/Not resolved
[4] = patient US154A-0004, 100 mg BID Arm A, Not related, Recovered/Resolved
[5] = patient US185A-0001, 100 mg BID Arm A, Not related, Not recovered/Not resolved
[6] = patient US185A-0006, 120 mg BID Arm A, Not related, Fatal

Procedure: Arm A: Patients without azole antifungal treatment within 7 days (or 21 days for isavuconazole) of first dose of the present compound
Arm B: Patients receiving posaconazole, voriconazole, or fluconazole antifungal prophylaxis at enrollment
The safety of each dose level also was evaluated by the SRC, which was comprised of all investigators participating in the study and selected Sponsor study team members. The dose recommended by the BLRM method was treated as guidance and was integrated with a clinical assessment of toxicity information and review of other available data, including safety, PK, pharmacodynamic, and laboratory data.
When the Dose Limiting Toxicity (DLT) evaluation for each cohort was completed, the SRC determined a next dose level based on the DLT and other available data, including safety, PK, pharmacodynamic, and laboratory data with reference to the Bayesian Logistic Regression Model (BLRM) recommendation.
Dose escalation decisions were made after all patients in a dose level cohort have at least completed Cycle 1. All available data were presented along with the BLRM predictions for toxicity probabilities at the potential next dose levels. The SRC then determined the dose(s) for the next cohort(s).

C=C1C[C@@H]2CC[C@H]1[C@@H](C(=O)N1CCC3(CC1)CN(c1ncncc1Oc1ccc(F)cc1C(=O)N(C(C)C)C(C)C)C3)N2 [the present compound, 5-fluoro-2-[(4-{7-[(1S,3S,4R)-5-methylidene-2-azabicyclo[2.2.2]octane-3-carbonyl]-2,7-diazaspiro[3.5]nonan-2-yl}pyrimidin-5-yl)oxy]-N,N-di(propan-2-yl)benzamide]
Non-hematological TEAE regardless of causality: COVID-19 (N=57, Grade ≥3): 3 (5.3%) n (%)
Non-hematological TEAE regardless of causality: Constipation (N=57, Grade ≥3): 1 (1.8%) n (%)
Non-hematological TEAE regardless of causality: Cough (N=57, Grade ≥3): 0 (0.0%) n (%)
Non-hematological TEAE regardless of causality: Decreased appetite (N=57, Grade ≥3): 2 (3.5%) n (%)
Non-hematological TEAE regardless of causality: Diarrhoea (N=57, Grade ≥3): 0 (0.0%) n (%)
Non-hematological TEAE regardless of causality: Dizziness (N=57, Grade ≥3): 0 (0.0%) n (%)
Non-hematological TEAE regardless of causality: Dysgeusia (N=57, Grade ≥3): 0 (0.0%) n (%)
Non-hematological TEAE regardless of causality: Dyspnoea (N=57, Grade ≥3): 3 (5.3%) n (%)
Non-hematological TEAE regardless of causality: Electrocardiogram QT prolonged (N=57, Grade ≥3): 2 (3.5%) n (%)
Non-hematological TEAE regardless of causality: Epistaxis (N=57, Grade ≥3): 1 (1.8%) n (%)
Non-hematological TEAE regardless of causality: Fatigue (N=57, Grade ≥3): 1 (1.8%) n (%)
Non-hematological TEAE regardless of causality: Haemorrhage intracranial (N=57, Grade ≥3): 4 (7.0%) n (%)
Non-hematological TEAE regardless of causality: Headache (N=57, Grade ≥3): 0 (0.0%) n (%)
Non-hematological TEAE regardless of causality: Hypertension (N=57, Grade ≥3): 3 (5.3%) n (%)
Non-hematological TEAE regardless of causality: Hypotension (N=57, Grade ≥3): 2 (3.5%) n (%)
Non-hematological TEAE regardless of causality: Muscular weakness (N=57, Grade ≥3): 2 (3.5%) n (%)
Non-hematological TEAE regardless of causality: Myalgia (N=57, Grade ≥3): 0 (0.0%) n (%)
Non-hematological TEAE regardless of causality: Nausea (N=57, Grade ≥3): 4 (7.0%) n (%)
Non-hematological TEAE regardless of causality: Oedema peripheral (N=57, Grade ≥3): 0 (0.0%) n (%)
Non-hematological TEAE regardless of causality: Pain in extremity (N=57, Grade ≥3): 1 (1.8%) n (%)
Non-hematological TEAE regardless of causality: Pneumonia (N=57, Grade ≥3): 10 (17.5%) n (%)
Non-hematological TEAE regardless of causality: Pyrexia (N=57, Grade ≥3): 0 (0.0%) n (%)
Non-hematological TEAE regardless of causality: Sepsis (N=57, Grade ≥3): 10 (17.5%) n (%)
Non-hematological TEAE regardless of causality: Stomatitis (N=57, Grade ≥3): 0 (0.0%) n (%)
Non-hematological TEAE regardless of causality: Vomiting (N=57, Grade ≥3): 3 (5.3%) n (%)
Non-hematological laboratory change regardless of causality: ALT increase (N=57, Grade ≥3): 0 (0.0%) n (%)
Non-hematological laboratory change regardless of causality: AST increase (N=57, Grade ≥3): 1 (1.8%) n (%)
Non-hematological laboratory change regardless of causality: Hypertriglyceridemia (N=57, Grade ≥3): 4 (7.0%) n (%)
Non-hematological laboratory change regardless of causality: Hypocalcemia (N=57, Grade ≥3): 2 (3.5%) n (%)
Non-hematological laboratory change regardless of causality: Hypokalemia (N=57, Grade ≥3): 10 (17.2%) n (%)
Non-hematological laboratory change regardless of causality: Hypomagnesemia (N=57, Grade ≥3): 1 (1.8%) n (%)
Non-hematological laboratory change regardless of causality: Hyponatremia (N=57, Grade ≥3): 0 (0.0%) n (%)
Non-hematological laboratory change regardless of causality: Hypophosphatemia (N=57, Grade ≥3): 11 (19.3%) n (%)
Treatment related adverse event: Nausea (N=57, Grade ≥3): 1 (1.8%) n (%)
Treatment related adverse event: Vomiting (N=57, Grade ≥3): 1 (1.8%) n (%)
TEAE in ≥20% of patients regardless of causality: Fatigue (Total N=43, 40-200 mg BID): 10 (23.3%) n (%)
TEAE in ≥20% of patients regardless of causality: Hypokalaemia (Total N=43, 40-200 mg BID): 9 (20.9%) n (%)
TEAE in ≥20% of patients regardless of causality: Nausea (Total N=43, 40-200 mg BID): 15 (34.9%) n (%)
TEAE in ≥20% of patients regardless of causality: Vomiting (Total N=43, 40-200 mg BID): 10 (23.3%) n (%)
TEAE related to the present compound in ≥2 patients: Decreased appetite (Total N=43, 40-200 mg BID): 3 (7.0%) n (%)
TEAE related to the present compound in ≥2 patients: Nausea (Total N=43, 40-200 mg BID): 3 (7.0%) n (%)
TEAE related to the present compound in ≥2 patients: Vomiting (Total N=43, 40-200 mg BID): 4 (9.3%) n (%)
Possible differentiation syndrome (DS) (cut-off, 40-300 mg BID): 3 pts
TEAE assessed as related: nausea (cut-off, 40-300 mg BID): 12.1%
TEAE assessed as related: vomiting (cut-off, 40-300 mg BID): 15.5%
mortality from DS (cut-off, 40-300 mg BID): no mortality
Grade >3 TEAE: anemia [1]: 13.8%
Grade >3 TEAE: febrile neutropenia [1]: 15.5%
Grade >3 TEAE: platelet count decrease [1]: 12.1%
Grade >3 TEAE: pneumonia [1]: 17.2%
Grade >3 TEAE: sepsis [1]: 15.5%
DLT (cut-off, any dose level of 40-300 mg BID): No DLT
patients with related asymptomatic Grade 3 QT prolongation (cut-off, in the presence of other QT prolonging drugs): One
DLT (n=81, 40 mg BID to 300 mg BID): no DLT
Grade 3 nausea and vomiting (n=81, 40-300 mg BID): 1 patient
TEAE assessed as related: nausea (n=81, 40-300 mg BID): 12.3%
TEAE assessed as related: vomiting (n=81, 40-300 mg BID): 14.8%
TEAE regardless of relationship: decreased appetite (n=81, 40-300 mg BID): 21.0%
TEAE regardless of relationship: diarrhea (n=81, 40-300 mg BID): 21.0%
TEAE regardless of relationship: febrile neutropenia (n=81, 40-300 mg BID): 22.2%
TEAE regardless of relationship: hypokalemia (n=81, 40-300 mg BID): 21.0%
TEAE regardless of relationship: nausea (n=81, 40-300 mg BID): 37.0%
TEAE regardless of relationship: vomiting (n=81, 40-300 mg BID): 29.6%
grade ≥3 QTc prolongation related to the compound (n=81, 40-300 mg BID): no reports
SAE Sepsis, CTCAE Grade (patient JP002A-0001, 40 mg BID Arm A, Not related, Not recovered/Not resolved): 3
SAE Malignant neoplasm progression, CTCAE Grade (patient JP002A-0003, 60 mg BID Arm B, Not related, Fatal): 5
SAE Disease progression, CTCAE Grade (patient JP007A-0002, 60 mg BID Arm B, Not related, Not recovered/Not resolved): 3
SAE Sepsis, CTCAE Grade (patient JP007A-0002, 60 mg BID Arm B, Not related, Recovered/Resolved): 4
SAE Pneumonia, CTCAE Grade (patient JP028A-0001, 40 mg BID Arm B, Not related, Fatal): 5
SAE Pneumonia, CTCAE Grade (patient JP028A-0001, 40 mg BID Arm B, Not related, Recovered/Resolved (one continuous event with the Grade 5)): 4
SAE Haemorrhage intracranial, CTCAE Grade (patient US053A-0001, 80 mg BID Arm A, Not related, Fatal): 5
SAE Atrial fibrillation, CTCAE Grade [2]: 3
SAE Pneumonia, CTCAE Grade [2]: 3
SAE Respiratory failure, CTCAE Grade [2]: 4
SAE Differentiation syndrome, CTCAE Grade (patient US053A-0001, 80 mg BID Arm A, Drug interrupted, Recovered/Resolved): 4
SAE Differentiation syndrome, CTCAE Grade (patient US053A-0001, 80 mg BID Arm A, action Not applicable, Recovered/Resolved): 3
SAE Pneumonia, CTCAE Grade (patient US053A-0002, 40 mg BID Arm B, Not related, Recovered/Resolved): 3
SAE Disease progression, CTCAE Grade (patient US154A-0001, 80 mg BID Arm A, Not related, Fatal): 5
SAE Disease progression, CTCAE Grade (patient US154A-0002, 40 mg BID Arm B, Not related, Fatal): 5
SAE Bone pain, CTCAE Grade [3]: 3
SAE Malaise, CTCAE Grade [3]: 3
SAE Pyrexia, CTCAE Grade [4]: 1
SAE Respiratory failure, CTCAE Grade [4]: 2
SAE Leukocytosis, CTCAE Grade (patient US154A-0004, 100 mg BID Arm A, Not related, Recovering/Resolving): 4
SAE Leukocytosis, CTCAE Grade (patient US158A-0002, 120 mg BID Arm A, Not related, Recovered/Resolved): 1
SAE Acute myeloid leukaemia, CTCAE Grade (patient US185A-0001, 100 mg BID Arm A, Not related, Fatal): 5
SAE Cerebrovascular accident, CTCAE Grade [5]: 4
SAE Haemorrhage intracranial, CTCAE Grade [5]: 2
SAE Electrocardiogram QT prolonged, CTCAE Grade (patient US185A-0001, 100 mg BID Arm A, Not related, Recovered/Resolved, hypomagnesaemia at the time): 3
SAE Febrile neutropenia, CTCAE Grade (patient US185A-0002, 40 mg BID Arm B, Not related, Recovered/Resolved): 3
SAE Sepsis, CTCAE Grade (patient US185A-0002, 40 mg BID Arm B, Not related, Recovering/Resolving): 3
SAE Lung infection (pneumonia), CTCAE Grade [6]: 5
SAE Multiple organ dys function syndrome, CTCAE Grade [6]: 5
SAE Sepsis, CTCAE Grade [6]: 5
SAE Pneumonia fungal, CTCAE Grade (patient US210A-0001, 80 mg BID Arm A, Not related, Fatal): 5
SAE Rectal haemorrhage, CTCAE Grade (patient US210A-0001, 80 mg BID Arm A, Not related, Recovered/Resolved): 4
SAE Cellulitis, CTCAE Grade (patient US210A-0002, 120 mg BID Arm A, Not related, Recovered/Resolved): 3
safety profile between Arm A and Arm B (without vs with azole antifungals): not different
